Results: PubChem BioAssay (NCI)
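Abbreviation: GI50, concentration required for 50% inhibition of growth. Definition used: TGI = concentration required for complete inhibition of growth.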

Assays:
Assay in all cases: DTP human tumour cell line panel, 384-well format
[1] = system: A549 NSCLC
[2] = system: UO-31 renal
[3] = system: HT29 colon
[4] = system: MOLT-4 leukemia
[5] = system: RXF 393 renal
[6] = system: MDA-MB-468 breast
[7] = system: SR leukemia
[8] = system: NCI-H23 lung
[9] = system: A498 renal
[10] = system: OVCAR-5 ovarian
[11] = system: SW-620 colon
[12] = system: SF-268 CNS
[13] = system: OVCAR-8 ovarian
[14] = system: SNB-75 CNS
[15] = system: HL-60(TB) leukemia
[16] = system: M14 melanoma
[17] = system: U251 glioblastoma
[18] = system: OVCAR-4 ovarian
[19] = system: BT-549 breast
[20] = system: IGROV1 ovarian
[21] = system: ACHN renal
[22] = system: HOP-92 NSCLC
[23] = system: CAKI-1 renal
[24] = system: KM12 colon
[25] = system: MDA-MB-435 melanoma
[26] = system: CCRF-CEM leukemia
[27] = system: MCF7 breast
[28] = system: K-562 leukemia
[29] = system: SK-MEL-5 melanoma

For CCC[C@H](N[C@@H]1CCc2cc(F)cc(F)c2C1)C(=O)Nc1cn(C(C)(C)CNCC(C)(C)C)cn1, the GI50 [1] was 13.9 µM, the TGI [1] was 46.8 µM and the GI50 [2] was 14.6 µM. It also gave a TGI [2] of 28.5 µM, a GI50 [3] of 11 µM and a TGI [3] of 23.7 µM. It also gave a GI50 [4] of 4.04 µM, a TGI [4] of 15.2 µM and a GI50 [5] of 10.7 µM. It also gave a TGI [5] of 24.1 µM, a TGI [6] of 1.75 µM and a GI50 [7] of 4.2 µM. It also gave a TGI [7] of 16.2 µM, a GI50 [8] of 11.9 µM and a TGI [8] of 26 µM. It also gave a GI50 [9] of 10.5 µM, a TGI [9] of 22.8 µM and a GI50 [10] of 19.7 µM. The TGI [10] was 49.4 µM, the GI50 [11] was 16.2 µM and the TGI [11] was 32.2 µM. The GI50 [12] was 15.3 µM, the TGI [12] was 31.3 µM and the GI50 [13] was 16.1 µM. The TGI [13] was 36.5 µM, the GI50 [14] was 15.8 µM and the TGI [14] was 42.8 µM. For the same compound, the GI50 [15] was 2.77 µM, the TGI [15] was 14.5 µM and the GI50 [16] was 13.8 µM. The TGI [16] was 27 µM, the GI50 [17] was 15.5 µM and the TGI [17] was 29.3 µM. The GI50 [18] was 1.09 µM, the TGI [18] was 35.9 µM and the GI50 [19] was 9.95 µM. The TGI [19] was 22.1 µM, the GI50 [20] was 17.3 µM and the TGI [20] was 44.6 µM. For the same compound, the GI50 [21] was 15.4 µM, the TGI [21] was 35.2 µM and the GI50 [22] was 11.7 µM. It also gave a TGI [22] of 24.1 µM, a GI50 [23] of 14.4 µM and a TGI [23] of 29.5 µM. The GI50 [24] was 14.6 µM, the TGI [24] was 29.8 µM and the GI50 [25] was 16.6 µM. It also gave a TGI [25] of 35.1 µM, a GI50 [26] of 7.5 µM and a TGI [26] of 21 µM. For the same compound, the GI50 [27] was 5.11 µM, the TGI [27] was 19.8 µM and the GI50 [28] was 10.6 µM. The TGI [28] was 22.8 µM, the GI50 [29] was 11.2 µM and the TGI [29] was 23.4 µM.
